# From patent publication EP3048886B1, “3, 4-BIS-BENZYLSULFONYLBUTANENITRILE AND ITS PHARMACEUTICAL USE” (Olatec Therapeutics LLC, priority 2013, dated 2015)
# What was measured:
# [1] = system: arachidonic acid-induced ear swelling; test: topical arachidonic acid-induced ear swelling model in mice; assay type: in vivo; details: inhibition of ear swelling vs vehicle, male ICR mice; topical application 30 min before and 15 min after arachidonic acid; measured at 90 minutes after arachidonic acid application
# Experimental: The test compound, indomethacin (positive control), and vehicle were evaluated for anti-inflammatory activity in a topical arachidonic acid-induced ear swelling model in mice.
# Male ICR mice weighing 22 ± 2 g were used and randomly divided; the test compound and vehicle control had 10 mice, and indomethacin had 5 mice. Arachidonic Acid (0.5 mg in 20 µl of acetone:ethanol/1:1) was applied topically to the anterior and posterior surfaces of the right ear of each mouse. Test substances and vehicle, as listed in Table 2 were similarly applied 30 min before and 15 min after arachidonic acid application. The thickness of the right ear and the left ear was measured and the difference calculated as an indication of the inflammation in the right ear. Ear swelling was measured by a Dyer model micrometer gauge at 60 and 90 minutes after arachidonic acid application as an index of inflammation. Percent inhibition was calculated according to the formula: Ic - It/Ic x 100, where Ic and It refers to increase of ear thickness (mm) in control and treated mice, respectively. ANOVA and Dunnett's test were employed to ascertain significant difference between vehicle control and treated groups. Significance is set at P<0.05 level.
# [2] = system: tail flick reaction to heat; test: tail flick test (49°C water bath) in mice; details: mouse, in vivo
# Experimental: The tail flick test is a test of the pain response in animals. The tail flick test is used in basic pain research and to measure the effectiveness of analgesics, by observing the tail flick reaction to heat in an animal. This test assesses the nociceptive response to a local pain stimulus, and the ability of a drug to inhibit this response.
# Vehicle control (DMSO) and test compound 3,4-bis-benzylsulfonylbutanenitrile in DMSO were administered by oral gavage to mice with a volume of 5 mL/kg, immediately prior to testing, at time zero. The test compound was administered at a dosage of 500 mg/kg in DMSO. Positive control morphine in water was administered at time zero by subcutaneous injection at 8 mg/kg to mice. […] The purpose of morphine is not to serve as a comparison with the test compound. Each group had 10 mice.
# The response of mice to heat stimulus was evaluated by measuring the time of tail-flick or tail-flick latency from 49°C water bath. Briefly, the animal was held with its tail hanging down. Approximately 5.08 cm (2 inches) of the tail was immersed in a beaker of water at 38±1 °C for about 30 seconds, and this was done twice to acclimate the animal to the procedure.
# Subsequently, approximately 5.08 cm (2 inches) of the tail was immersed in a beaker of water at 49±1 °C, at which point a timer was started. […]
Compound,% Inhibition [1] [%],tail flick latency compared with vehicle-treated mice [2]
"N#CCC(CS(=O)(=O)Cc1ccccc1)S(=O)(=O)Cc1ccccc1 (centres unmarked) [3,4-bis-benzylsulfonylbutanenitrile]",34,–
CN1CC[C@]23c4c5ccc(O)c4O[C@H]2[C@@H](O)C=C[C@H]3[C@H]1C5 [morphine],–,not
